# According to patent US20100021398A1, “COMPOSITIONS AND METHODS FOR LIGHTENING SKIN AND PROTECTING SKIN FROM ULTRAVIOLET RADIATION WITH GLUTATHIONE” (priority 2008, published 2010):
# Columns and labels:
# [1] = test system: Mitochondrial SOD 2; assay: up-regulation of anti-oxidant enzyme SOD by glutathione; format: cell-based; conditions: glutathione up-regulating anti-oxidant enzymes
# [2] = unmodified glutathione, cited from earlier work
structure (smiles),measurement,setting,value
N[C@@H](CCC(=O)N[C@@H](CS)C(=O)NCC(=O)O)C(=O)O [glutathione],SOD increase,[1],182%
same,half-life in the blood stream,[2]; blood stream,about a minute and a half
same,half-life in the blood,[2]; blood,around 120 seconds
